Patent US20220257597A1, “Methods of Administering Elagolix” (AbbVie Inc., priority 2021, published 2022)
“Also recorded” adds a separate entry of the source.

How the values were obtained:
[1] = Drug-drug interaction study: effect of multiple doses of elagolix sodium on pharmacokinetics of bupropion (CYP2B6 substrate) and OH-bupropion
Experimental: Subjects: Twenty four (24) adult premenopausal women in generally good health participated in this study.
Elagolix 300 mg BID (as 300 mg immediate release tablets) was administered in the morning and evening on days 1 through 14 in period 2. […] No food was consumed for 2 hours prior to the evening doses of elagolix continuing through 2 hours after. The doses of elagolix were separated by approximately 12 hours.
Individual PK parameters (peak concentration [Cmax] and area under the concentration-time curve [AUC]) were estimated using noncompartmental methods.
Central value ratios (90% confidence intervals) for Cmax, AUC, and metabolite to parent ratios (MPRs) (day 11, period 2 vs. day 1, period 1) were calculated to assess the DDIs. Safety was evaluated through assessment of adverse events, vital signs, electrocardiogram, and clinical laboratory tests.
Adverse events (AEs) were monitored throughout the DDI study. Additional safety evaluations included monitoring of physical examinations, vital signs, electrocardiogram variables, and clinical laboratory values were assessed

CYP3A = assay: Substrate of / metabolism by CYP3A; type: in vitro ADME
[2] = Phase 1 open-label study: coadministration of combined oral contraceptive (EE+LNG) with elagolix sodium, pharmacokinetics, safety and tolerability; type: in vivo, human; settings: healthy premenopausal female subjects
Experimental: Objective: To evaluate the effect of elagolix on the pharmacokinetics, safety, and tolerability of a single dose of a combined oral contraceptive (COC) containing EE and LNG in healthy premenopausal female subjects. […] [table] […] Diagnosis and Main Criteria for Inclusion: Subjects were premenopausal females, and age was between 18 and 49 years, inclusive. Test Product, Dose/Strength/Concentration, and Mode of Administration: […] EE/LNG 0.02 mg/0.1 mg tablet; All study drugs were administered orally. Duration of Treatment: […] EE/LNG: 0.02 mg/0.1 mg on two separate occasions. Criteria for Evaluation: Pharmacokinetic: Cmax, Tmax, t1/2 and AUC. Safety: Vital signs, physical examinations, laboratory tests, and adverse events. […] The tabulation of the number of subjects with treatment-emergent adverse events also was provided with further breakdowns by severity rating and relationship to study drug.

[3] = Embryofetal development study in the rabbit
Experimental: (§1) Embryofetal development studies were conducted in the rat and rabbit. Elagolix was administered by oral gavage to pregnant rats (25 animals/dose) at doses of 0, 300, 600 and 1200 mg/kg/day and to rabbits (20 animals/dose) at doses of 0, 100, 150, and 200 mg/kg/day, during the period of organogenesis (gestation day 6-17 in the rat and gestation day 7-20 in the rabbit).

[4] = Embryofetal development study in the rat; type: in vivo
Experimental: as §1

[5] = target: efflux transporter P-glycoprotein (P-gp) (Homo sapiens, UniProt P08183); assay: P-glycoprotein inhibition; type: in vitro ADME
[6] = pregnant rabbits, 150 mg/kg/day

Sequence of efflux transporter P-glycoprotein (P-gp) (P08183 whole entry): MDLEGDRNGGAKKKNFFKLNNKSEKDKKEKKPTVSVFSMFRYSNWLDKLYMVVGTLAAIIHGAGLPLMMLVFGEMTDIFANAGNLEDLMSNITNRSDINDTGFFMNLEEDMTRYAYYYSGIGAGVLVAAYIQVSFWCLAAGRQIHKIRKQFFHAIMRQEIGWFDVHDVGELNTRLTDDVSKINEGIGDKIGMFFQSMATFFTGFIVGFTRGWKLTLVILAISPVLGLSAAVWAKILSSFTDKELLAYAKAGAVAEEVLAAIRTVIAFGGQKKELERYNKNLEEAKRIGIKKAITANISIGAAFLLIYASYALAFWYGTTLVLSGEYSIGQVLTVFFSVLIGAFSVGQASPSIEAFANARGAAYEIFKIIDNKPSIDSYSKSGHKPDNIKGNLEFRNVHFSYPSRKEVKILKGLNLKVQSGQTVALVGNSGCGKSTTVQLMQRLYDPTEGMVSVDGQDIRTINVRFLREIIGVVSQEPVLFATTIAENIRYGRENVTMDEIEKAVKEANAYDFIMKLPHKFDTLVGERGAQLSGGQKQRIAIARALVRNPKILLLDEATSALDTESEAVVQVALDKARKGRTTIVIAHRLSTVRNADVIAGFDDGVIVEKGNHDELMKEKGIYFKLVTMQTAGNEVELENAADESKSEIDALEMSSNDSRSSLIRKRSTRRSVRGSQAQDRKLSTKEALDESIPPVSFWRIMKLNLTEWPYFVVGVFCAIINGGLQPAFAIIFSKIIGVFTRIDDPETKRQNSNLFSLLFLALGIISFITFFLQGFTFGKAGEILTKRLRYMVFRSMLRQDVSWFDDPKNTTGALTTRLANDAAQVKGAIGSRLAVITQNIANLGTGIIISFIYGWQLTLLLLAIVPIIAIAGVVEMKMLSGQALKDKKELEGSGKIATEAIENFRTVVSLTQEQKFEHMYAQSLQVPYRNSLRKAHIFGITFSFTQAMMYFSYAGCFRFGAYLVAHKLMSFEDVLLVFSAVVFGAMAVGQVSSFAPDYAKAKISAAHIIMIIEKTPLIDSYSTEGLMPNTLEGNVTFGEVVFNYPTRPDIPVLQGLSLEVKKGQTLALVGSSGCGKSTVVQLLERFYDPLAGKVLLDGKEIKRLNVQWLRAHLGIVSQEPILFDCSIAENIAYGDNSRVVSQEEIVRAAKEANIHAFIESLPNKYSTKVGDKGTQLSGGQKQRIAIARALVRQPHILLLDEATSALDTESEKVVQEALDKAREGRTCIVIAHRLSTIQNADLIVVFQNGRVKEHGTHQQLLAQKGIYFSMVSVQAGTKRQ

COc1cccc(-c2c(C)n(Cc3c(F)cccc3C(F)(F)F)c(=O)n(C[C@H](NCCCC(=O)O)c3ccccc3)c2=O)c1F [elagolix, 4-((R)-2-[5-(2-fluoro-3-methoxy-phenyl)-3-(2-fluoro-6-trifluoromethyl-benzyl)-4-methyl-2,6-dioxo-3,6-dihydro-2H-pyrimidin-1-yl]-1-phenyl-ethylamino)-butyric acid]
CYP2B6 induction in the healthy volunteer study ([1]; elagolix 300 mg BID for 10 days): did not induce CYP2B6
tolerability of co-administration of elagolix and bupropion ([1]; healthy premenopausal female subjects): generally well tolerated
substrate of CYP3A (CYP3A): substrate
tolerability of co-administration of elagolix and EE/LNG [2]: generally well tolerated
highest, maternally toxic dose with spontaneous abortions and total litter loss, as multiple of the MRHD based on AUC ([3]; pregnant rabbits): 7 times the MRHD
findings at lower non-maternally toxic dose [3, 6]: A single total litter loss
non-maternally toxic dose with total litter loss, as multiple of the MRHD [3, 6]: 4 times the MRHD
findings at the highest, maternally toxic dose ([3]; pregnant rabbits, oral gavage, gestation day 7-20): three spontaneous abortions and a single total litter loss
fetal malformations / structural abnormalities ([3]; rabbit, any dose level tested): no structural abnormalities; also recorded: No fetal malformations
dose with increased post implantation losses, as multiple of the MRHD based on AUC ([4]; pregnant rats, mid dose group): 12 times the MRHD
maternal deaths ([4]; pregnant rats, oral gavage 300, 600 and 1200 mg/kg/day): six deaths
fetal malformations / structural abnormalities ([4]; rat, any dose level tested): no structural abnormalities; also recorded: No fetal malformations
inhibitor of efflux transporter P-glycoprotein (P-gp) [5]: inhibitor
